Measurements as given in patent US20160213639A1, “COMPOSITIONS AND METHODS FOR TREATING NON-ALCOHOLIC STEATOHEPATITIS” (MOCHIDA PHARMACEUTICAL CO., LTD., priority 2013, published 2016).

Tests used:
NASH = assay: Phase II NASH trial: liver histology (NAS, steatosis, ballooning, inflammation, fibrosis); assay type: in vivo, human; details: for subjects who met the primary endpoint: 12 months, p=ns vs placebo (20); for mean decrease in NAS: placebo 0.9, p=n.s.; for subjects with a decrease in NAS by more than 2 points: placebo sixteen, p=n.s.
Description: (§1) This example provides the protocol used for an ongoing phase II clinical trial, double blind, placebo-controlled study to investigate the safety, efficacy, and pharmacokinetic profile of two doses of EPA-E in subjects with NASH. Up to 70 subjects were enrolled into each treatment arm, for a total of 210 subjects to be enrolled. Block randomization using an interactive voice response system (IVRS) was used to assign patients in a 1:1:1 ratio to two active doses and placebo. Patients were stratified at randomization by presence or absence of diabetes. Patients with diabetes comprised no more than 25% of the total number of patients enrolled. Subjects were treated with 600 mg EPA-E, 900 mg EPA-E or placebo three times a day for one year.
In order to support the trial, EPA-E capsules and matching placebo capsules were prepared. EPA-E capsule is an oval soft gelatin capsule containing 300 mg of EPA-E as an active ingredient. […] These capsules are unidentifiable as EPA-E capsules or placebo capsules.
Subjects were administered orally 3 capsules 3 times daily, immediately after meals.
Adult subjects with biopsy-confirmed NASH within six months prior to randomization or those with suspected NASH were screened for the study. […] The histology was assessed using the NASH CRN criteria. The histological entry criteria included (1) the presence of possible or definite steatohepatitis, and (2) a NAFLD activity score (NAS) ≧4 with a minimum score of 1 each for steatosis and inflammation plus either ballooning or at least stage 1a sinusoidal fibrosis. The nonalcoholic nature of the disease was defined by a history of consumption of less than 3 drinks daily (approximately 10 gm alcohol/drink) for the previous 5 years. Those who exceeded these limits at the time of randomization or for more than 3 consecutive months within the five year time frame were excluded.
The liver biopsies from subjects being considered for the trial were sent to a central pathology laboratory where they were read and scored. A total of 4 pathologists with experience in liver histopathology reviewed the biopsies. All the pathologists underwent a training session conducted by the lead pathologist (OWC) prior to the study. After slide quality assessment, the cases were randomly assigned to 2 reviewers who scored fatty change, lobular inflammation, hepatocyte ballooning and fibrosis as previously described. If there was a discrepancy between any of these evaluations, a third randomly assigned reviewer agreed with one of the choices thereby producing a single concordant NAS and fibrosis score for the biopsy.
Following confirmation of eligibility based on both inclusion and exclusion criteria, subjects were randomized to receive placebo or one of two doses of EPA-E (1800 mg/day or 2700 mg/day) in three divided doses daily. Block randomization using an interactive voice response system was used to assign subjects in a 1:1:1 ratio between the three arms. Subjects were stratified by the presence of diabetes, impaired glucose tolerance or metabolic syndrome on stable doses of medication. The total fraction of such individuals was capped at 40% of the study cohort.
All subjects were followed according to a predefined clinic schedule. Data from unscheduled visits were collected in separate forms. Following twelve months of treatment, all subjects underwent a protocol-driven liver biopsy. Study drug was then discontinued.
The primary one-year efficacy endpoint was a composite of either a NAS <3 without worsening of fibrosis or a drop in NAS by 2 or more with contribution from more than one parameter and no worsening of fibrosis. The proportions of subjects meeting this endpoint after 12 months of treatment in those receiving EPA-E were compared to those receiving placebo using the Cochrane-Armitage trend test. A short-term efficacy endpoint was changes from baseline in alanine aminotransferase at 3 and 6 months. This was assessed by analysis of covariance. […]

platelets = assay: Platelet anti-aggregation; assay type: cell-based; details: platelets from rats, rabbits and humans
[1] = Phase II NASH trial: safety analysis; assay type: in vivo, human; details: over the course of the study, all arms
Description: as §1, with “year. […]” for “year.”
The primary one-year efficacy endpoint was a composite of either a NAS <3 without worsening of fibrosis or a drop in NAS by 2 or more with contribution from more than one parameter and no worsening of fibrosis. […] This was assessed by analysis of covariance. Secondary endpoints included changes in the individual histological parameters related to NAFLD, overall NAS, liver enzymes and function, hemoglobin A1C, acute phase reactants, insulin sensitivity as measured by the homeostatic model (HOMA-IR), levels of cytokeratin 18 (CK18), hyaluronic acid, type IV collagen (7S domain), procollagen III peptide and key cytokines. […]

[2] = Lipid lowering in animal models; assay type: in vivo; details: rats, hamsters and rabbits
[3] = Gastric fluid levels in pylorus-ligated rats; assay type: in vivo; details: 3000 mg/kg oral dose

## CC/C=C\C/C=C\C/C=C\C/C=C\C/C=C\CCCC(=O)OCC [EPA-E, ethyl all-cis-5,8,11,14,17-eicosapentaenoate]
NASH; any of the treatment arms, over the duration of the study
  distribution of fibrosis scores: no significant changes in the distribution of fibrosis scores
NASH; cohort as a whole, low dose and high dose, efficacy evaluable dataset
  steatosis grade: Neither low dose-nor high dose-EPA-E affected the steatosis grade significantly
NASH; high dose EPA-E (2700 mg/day)
  subjects who met the primary endpoint: 22 subjects
  mean decrease in NAS: 0.8
  subjects with a decrease in NAS by more than 2 points: 18 subjects
NASH; low dose EPA-E (1800 mg/day)
  subjects who met the primary endpoint: 19 subjects
  mean decrease in NAS: 1
  subjects with a decrease in NAS by more than 2 points: 16 subjects
NASH; low dose and high dose, efficacy evaluable dataset
  cytological ballooning and lobular inflammation scores: not significantly altered
NASH; women <50, 1800 mg/day vs placebo, adjusted, p<0.03
  increased likelihood of beneficial impact on overall NAS score: 10 fold
NASH; women <50, 1800 mg/day vs placebo, adjusted, p<0.04
  increased likelihood of beneficial impact on steatosis grade: 8 fold
NASH; women <50, 2700 mg/day vs placebo, adjusted, p<0.04
  increased likelihood of beneficial impact on overall NAS score: 7 fold
NASH; women under 50 years of age, low dose EPA-E vs placebo, adjusted for baseline histology, BMI and changes in BMI, p=0.03
  odds ratio, beneficial impact in steatosis: 7.9
NASH; women under 50 years of age, low dose EPA-E vs placebo, adjusted, p=0.02
  odds ratio, beneficial impact in overall NAS: 10.5
NASH; women under 50 years of age, second value (dose group not given), adjusted, p=0.03
  odds ratio, beneficial impact in overall NAS: 6.8
platelets
  effects on platelets: anti-aggregation effects
[1]
  deaths: No deaths occurred
[2]
  lipids: lower lipids
[3]
  gastric fluid levels: reduction in gastric fluid levels
